Measured values: the supplement of paper PMC11061612

How the values were obtained:
Assay in all cases: Bliss excess, mean over the matrix (fraction); higher = more synergy
[1] = test system: NCI-H2009 (Lung Adenocarcinoma)
Method in brief: (§1)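 Bliss excess equals the observed combination effect minus the expected value EA + EB − EA·EB, where EA and EB are the effects of each agent alone. Combination Emax is the second-highest inhibition within the matrix. Inhibition was scaled from CellTiter-Glo 2.0 luminescence, with 0 set by vehicle wells and 1 by blank wells, after 72 hours of two-drug dosing of cells plated in 1536-well plates.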

[2] = test system: SNU-1 (Gastric Carcinoma)
Method in brief: as §1

HT-144 (Melanoma) = test system: HT-144 (Melanoma)
Method in brief: as §1

[3] = test system: GRANTA-519 (B-Cell Non-Hodgkin's Lymphoma)
Method in brief: as §1

[4] = test system: MDA-MB-175-VII (Breast Carcinoma)
Method in brief: as §1

[5] = test system: NCI-H1648 (Lung Adenocarcinoma)
Method in brief: as §1

[6] = test system: JJN-3 (Plasma Cell Myeloma)
Method in brief: as §1

[7] = test system: Daudi (Burkitt's Lymphoma)
Method in brief: as §1

NCI-H2452 (Mesothelioma) = test system: NCI-H2452 (Mesothelioma)
Method in brief: as §1

DK-MG (Glioblastoma) = test system: DK-MG (Glioblastoma)
Method in brief: as §1

[8] = test system: SBC-3 (Small Cell Lung Carcinoma)
Method in brief: as §1

[9] = test system: CAL-85-1 (Breast Carcinoma)
Method in brief: as §1

[10] = test system: NCI-H2170 (Squamous Cell Lung Carcinoma)
Method in brief: as §1

[11] = test system: SUP-HD1 (Hodgkin's Lymphoma)
Method in brief: as §1

[12] = test system: TOV-21G (Ovarian Carcinoma)
Method in brief: as §1

[13] = test system: RPMI-8402 (T-Lymphoblastic Leukemia)
Method in brief: as §1

[14] = test system: OVKATE (Ovarian Carcinoma)
Method in brief: as §1

[15] = test system: NCI-H1944 (Lung Adenocarcinoma)
Method in brief: as §1

[16] = test system: BT-474 (Breast Carcinoma)
Method in brief: as §1

SK-MEL-24 (Melanoma) = test system: SK-MEL-24 (Melanoma)
Method in brief: as §1

Structure (SMILES) | Bliss excess [1] | Bliss excess [2] | Bliss excess (HT-144 (Melanoma)) | Bliss excess [3] | Bliss excess [4] | Bliss excess [5] | Bliss excess [6] | Bliss excess [7] | Bliss excess (NCI-H2452 (Mesothelioma)) | Bliss excess (DK-MG (Glioblastoma)) | Bliss excess [8] | Bliss excess [9] | Bliss excess [10] | Bliss excess [11] | Bliss excess [12] | Bliss excess [13] | Bliss excess [14] | Bliss excess [15] | Bliss excess [16] | Bliss excess (SK-MEL-24 (Melanoma))
NC1(C(=O)N[C@@H](CCO)c2ccc(Cl)cc2)CCN(c2ncnc3[nH]ccc23)CC1 [Capivasertib] + CC(=O)c1c(C)c2cnc(Nc3ccc(N4CCNCC4)cn3)nc2n(C2CCCC2)c1=O [Palbociclib] (first compound max 10 µM, 7x7, partner max 10 µM) | -0.0054 | 0.0634 | -0.0486 | -0.0273 | 0.0127 | -0.0039 | -0.0257 | 0.0065 | -0.02 | -0.0228 | 0.0265 | -0.0019 | 0.0137 | -0.0643 | -0.0466 | -0.0296 | -0.018 | 0.02 | -0.0261 | -0.0514
CCN(CCO)CCCOc1ccc2c(Nc3cc(CC(=O)Nc4cccc(F)c4)[nH]n3)ncnc2c1 [AZD2811] + O=C(c1cc(Cc2n[nH]c(=O)c3ccccc23)ccc1F)N1CCN(C(=O)C2CC2)CC1 [Olaparib] (first compound max 1 µM, 7x7, partner max 10 µM) | 0.0113 | 0.0233 | -0.0266 | 0.0274 | -0.0012 | -0.0179 | 0.0422 | 0.104 | -0.0675 | 0.0024 | 0.0475 | -0.0246 | 0.0044 | 0.111 | 0.0352 | -0.0279 | -0.0481 | 0.0069 | -0.0079 | -0.0339
COc1cccc(OCCCN)c1-c1cc(Nc2cnc(C#N)cn2)n[nH]1 [Prexasertib] + O=C(c1cc(Cc2n[nH]c(=O)c3ccccc23)ccc1F)N1CCN(C(=O)C2CC2)CC1 [Olaparib] (first compound max 1 µM, 7x7, partner max 10 µM) | -0.0185 | -0.0533 | -0.0264 | -0.105 | -0.0407 | 0.0051 | 0.0165 | -0.058 | -0.0874 | 0.0193 | -0.0544 | -0.0209 | -0.106 | -0.091 | -0.0111 | -0.0292 | -0.062 | -0.0498 | -0.037 | -0.0381
CCN(CCO)CCCOc1ccc2c(Nc3cc(CC(=O)Nc4cccc(F)c4)[nH]n3)ncnc2c1 [AZD2811] + C[C@@H]1COCCN1C2=NC(=NC(=C2)C3(CC3)[S@](=N)(=O)C)C4=C5C=CNC5=NC=C4 [AZD6738] (first compound max 1 µM, 7x7, partner max 10 µM) | -0.0359 | 0.0129 | -0.0711 | -0.0269 | -0.0307 | -0.0898 | 0.0338 | 0.0457 | -0.0756 | -0.0146 | -0.0369 | 0.0098 | -0.0191 | 0.0391 | -0.0548 | -0.0312 | -0.0822 | -0.0415 | -0.0291 | -0.0914
CC(=O)c1c(C)c2cnc(Nc3ccc(N4CCNCC4)cn3)nc2n(C2CCCC2)c1=O [Palbociclib] + Cn1cnc2c(F)c(Nc3ccc(Br)cc3Cl)c(C(=O)NOCCO)cc21 [Selumetinib] (first compound max 10 µM, 7x7, partner max 10 µM) | -0.0264 | 0.067 | -0.0029 | -0.0386 | -0.0013 | 0.0823 | -0.0244 | -0.0641 | -0.0682 | -0.0133 | -0.0396 | -0.0218 | -0.0284 | -0.0414 | -0.0259 | -0.0374 | -0.0378 | -0.0022 | -0.0418 | -0.031
Cc1c2c(nn1C)CSCc1cc(n(C)n1)CSc1cc(c3ccccc3c1)OCCCc1c(C(=O)O)n(C)c3c-2c(Cl)ccc13 [AZD5991] + Cn1cnc2c(F)c(Nc3ccc(Br)cc3Cl)c(C(=O)NOCCO)cc21 [Selumetinib] (first compound max 1 µM, 7x7, partner max 3 µM) | 0.0176 | 0.0926 | 0.01 | -0.0162 | -0.0217 | 0.0396 | 0.0114 | 0.0545 | 0.0633 | 0.0143 | -0.0674 | -0.0162 | -0.0377 | -0.011 | 0.0121 | 0.0125 | -0.0724 | 0.027 | -0.0205 | 0.0006
CN(CCO)CC[C@H](CSc1ccccc1)Nc1ccc(S(=O)(=O)NC(=O)c2ccc(N3CCC([C@@H](O)c4ccccc4-c4ccc(Cl)cc4)CC3)cc2)cc1S(=O)(=O)C(F)(F)F [AZD4320] + CN(C)CCCOc1ccc(-c2ccc3ncc4c(c3c2)n(C2CCOCC2)c(=O)n4C)cn1 [AZD0156] (first compound max 1 µM, 7x7, partner max 1 µM) | -0.0424 | 0.0192 | -0.0032 | 0.007 | -0.0322 | -0.0326 | 0.0142 | -0.0133 | -0.0287 | -0.0539 | -0.0809 | -0.0472 | -0.0054 | -0.0754 | -0.0262 | 0.0188 | -0.104 | -0.0289 | -0.057 | -0.0838
